Measured values taken from US20210085640A1, “ACYLATED CATECHIN POLYPHENOLS AND METHODS OF THEIR USE FOR THE TREATMENT OF CANCER” (Flagship Pioneering Innovations V, Inc., priority 2018, published 2021).

Legend:
Assay type in all cases: cell-based
T24 bladder cancer cells = experiment: Cancer cell survival (CellTiter-Glo), T24; details: Homo sapiens, 72 h, read-out: Cell survival at given concentration
Procedure, shortened: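 Viability by CellTiter-Glo after 72 h compound treatment of T24 bladder cancer cells (4×10^3/well, plated the night before), nine concentration levels in triplicate. Percent survival normalised to untreated cells minus medium background, from which IC50 was determined.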

AGS stomach cancer cells = experiment: Cancer cell survival (CellTiter-Glo), AGS; details: 72 h
Procedure, shortened: (§1)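 CellTiter-Glo luminescence after 72 h compound exposure (37 C, 5% CO2; nine concentration levels, triplicate) of overnight-plated cells at 4×10^3 per well. IC50 calculated from survival % relative to untreated cells after medium-background subtraction.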

[1] = test system: HCT 116 colorectal cancer cells; experiment: Cancer cell survival (CellTiter-Glo), HCT 116; details: Homo sapiens, HCT 116 cells, 72 h, read-out: Cell survival at given concentration
Procedure, shortened: as §1

[2] = test system: Daudi lymphoma cancer cells; experiment: Cancer cell survival (CellTiter-Glo), Daudi; details: Homo sapiens, 72 h, read-out: Cell survival at given concentration
Procedure, shortened: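 Daudi cells (4×10^3/well) were exposed for 72 h at 37 °C to nine concentrations of compound, added as 10× solutions spanning 1 μM–10 mM (fatty acids) or 100 nM–1 mM (others). CellTiter-Glo luminescence gave % survival versus untreated, medium-blank corrected; IC50 derived.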

[3] = test system: PC-3 prostate cancer cells; experiment: Cancer cell survival (CellTiter-Glo), PC-3; details: Homo sapiens, PC-3 cells, 72 h, read-out: Cell survival at given concentration
Procedure, shortened: as §1

A549 lung cancer cells = experiment: Cancer cell survival (CellTiter-Glo), A549; details: Homo sapiens, 72 h, read-out: Cell survival at given concentration
Procedure, shortened: as §1

MCF7 breast cancer cells = experiment: Cancer cell survival (CellTiter-Glo), MCF7; details: Homo sapiens, 72 h, read-out: Cell survival at given concentration
Procedure, shortened: as §1

[4] = Human Regulatory T Cell Differentiation Assay; details: human, primary naïve CD4+ T cells isolated from PBMCs, read-out: Cell viability % DMSO
Procedure: Peripheral blood mononuclear cells (PBMCs) from whole blood donated by health volunteers were separated by Ficoll-Paque gradient centrifugation and naïve CD4^+ T cells were subsequently isolated using magnet beads (EasySep™ Human Naïve CD4^+ T Cell Isolation Kit, Cambridge, Mass.). For regulatory T cell (Treg) differentiation assay, naïve CD4^+ T cells were cultured (1-10×10^4 cells) in CTS OpTmizer medium for 6 days and stimulated with 5 ng/ml TGF-β, 100 U/ml IL-2, and ImmunoCult™ Human […] T Cell Activator; Stemcell #10990) with/without Compounds. Cell viability was determined using a viability dye (eBioscience Fixable Viability Dye eFluor 780: ThermoFisher 65-0865-14) at 1:500 dilution. The cells were gated for Treg, defined as Live, CD11c^−, CD14^−, CD19^−, CD8^−, CD4^+, CD3^+, CD25^+, FOXP3^+. Percent (%) Tregs were calculated as percentage of CD4^+, CD25^+, FOXP3^+ cells over total CD4^+ T cells. Statistical analysis was performed with GraphPad Prism Software Using One-Way ANOVA.

A-431 skin cancer cells = experiment: Cancer cell survival (CellTiter-Glo), A-431; details: Homo sapiens, A-431 cells, 72 h, read-out: Cell survival at given concentration
Procedure, shortened: as §1

Which results are given for `O=C[C@H](O)[C@@H](O)[C@@H](O)CO` [L-arabinose]?
viability at 0.101 µM (T24 bladder cancer cells; T-24, 101 nM): 100%; viability at 0.318 µM (T24 bladder cancer cells; T-24, 318 nM): 103%; viability at 1 µM (T24 bladder cancer cells; T-24, 1 μM): 100%; viability at 3 µM (T24 bladder cancer cells; T-24, 3 μM): 103%; viability at 10 µM (T24 bladder cancer cells; T-24, 10 μM): 102%; viability at 32 µM (T24 bladder cancer cells; T-24, 32 μM): 105%; viability at 100 µM (T24 bladder cancer cells; T-24, 100 μM): 101%; viability at 316 µM (T24 bladder cancer cells; T-24, 316 μM): 101%; viability at 1000 µM (T24 bladder cancer cells; T-24, 1000 μM): 104%; viability at 0.101 µM (AGS stomach cancer cells; 101 nM, read-out: Cell survival at given concentration): 100%; viability at 0.318 µM (AGS stomach cancer cells; 318 nM, read-out: Cell survival at given concentration): 102%; viability at 1 µM (AGS stomach cancer cells; 1 μM, Table 10.1, read-out: Cell survival at given concentration): 101%; viability at 3 µM (AGS stomach cancer cells; 3 μM, Table 10.1, read-out: Cell survival at given concentration): 102%; viability at 10 µM (AGS stomach cancer cells; 10 μM, Table 10.1, read-out: Cell survival at given concentration): 102%; viability at 32 µM (AGS stomach cancer cells; 32 μM, Table 10.1, read-out: Cell survival at given concentration): 104%; viability at 100 µM (AGS stomach cancer cells; 100 μM, Table 10.1, read-out: Cell survival at given concentration): 105%; viability at 316 µM (AGS stomach cancer cells; 316 μM, read-out: Cell survival at given concentration): 102%; viability at 1000 µM (AGS stomach cancer cells; 1000 μM, read-out: Cell survival at given concentration): 101%; viability at 0.101 µM ([1]; 101 nM): 101%; viability at 0.318 µM ([1]; 318 nM): 101%; viability at 1 µM ([1]; 1 μM): 101%; viability at 3 µM ([1]; 3 μM): 103%; viability at 10 µM ([1]; 10 μM): 103%; viability at 32 µM ([1]; 32 μM): 104%; viability at 100 µM ([1]; 100 μM): 104%; viability at 316 µM ([1]; 316 μM): 102%; viability at 1000 µM ([1]; 1000 μM): 99%; viability at 0.101 µM ([2]; 101 nM): 100%; viability at 0.318 µM ([2]; 318 nM): 100%; viability at 1 µM ([2]; 1 μM): 100%; viability at 3 µM ([2]; 3 μM): 99%; viability at 10 µM ([2]; 10 μM): 102%; viability at 32 µM ([2]; 32 μM): 102%; viability at 100 µM ([2]; 100 μM): 103%; viability at 316 µM ([2]; 316 μM): 102%; viability at 1000 µM ([2]; 1000 μM): 102%; viability at 0.101 µM ([3]; 101 nM): 103%; viability at 0.318 µM ([3]; 318 nM): 100%; viability at 1 µM ([3]; 1 μM): 100%; viability at 3 µM ([3]; 3 μM): 101%; viability at 10 µM ([3]; 10 μM): 103%; viability at 32 µM ([3]; 32 μM): 101%; viability at 100 µM ([3]; 100 μM): 100%; viability at 316 µM ([3]; 316 μM): 101%; viability at 1000 µM ([3]; 1000 μM): 100%; viability at 0.101 µM (A549 lung cancer cells; 101 nM): 101%; viability at 0.318 µM (A549 lung cancer cells; 318 nM): 103%; viability at 1 µM (A549 lung cancer cells; 1 μM): 104%; viability at 3 µM (A549 lung cancer cells; 3 μM): 102%; viability at 10 µM (A549 lung cancer cells; 10 μM): 103%; viability at 32 µM (A549 lung cancer cells; 32 μM): 103%; viability at 100 µM (A549 lung cancer cells; 100 μM): 102%; viability at 316 µM (A549 lung cancer cells; 316 μM): 102%; viability at 1000 µM (A549 lung cancer cells; 1000 μM): 104%; viability at 0.101 µM (MCF7 breast cancer cells; 101 nM): 99%; viability at 0.318 µM (MCF7 breast cancer cells; 318 nM): 101%; viability at 1 µM (MCF7 breast cancer cells; 1 μM): 98%; viability at 3 µM (MCF7 breast cancer cells; 3 μM): 101%; viability at 10 µM (MCF7 breast cancer cells; 10 μM): 99%; viability at 32 µM (MCF7 breast cancer cells; 32 μM): 101%; viability at 100 µM (MCF7 breast cancer cells; 100 μM): 99%; viability at 316 µM (MCF7 breast cancer cells; 316 μM): 98%; viability at 1000 µM (MCF7 breast cancer cells; 1000 μM): 98%; viability at 6 days, 0.5 mM ([4]; 0.5 mM): 90 to 110%; viability at 6 days, 1 mM ([4]; 1 mM): 90 to 110%; viability at 0.101 µM (A-431 skin cancer cells; 101 nM): 103%; viability at 0.318 µM (A-431 skin cancer cells; 318 nM): 102%; viability at 1 µM (A-431 skin cancer cells; 1 μM): 102%; viability at 3 µM (A-431 skin cancer cells; 3 μM): 103%; viability at 10 µM (A-431 skin cancer cells; 10 μM): 103%; viability at 32 µM (A-431 skin cancer cells; 32 μM): 105%; viability at 100 µM (A-431 skin cancer cells; 100 μM): 105%; viability at 316 µM (A-431 skin cancer cells; 316 μM): 105%; viability at 1000 µM (A-431 skin cancer cells; 1000 μM): 102%
